Assay results taken from patent US7619089B2, “Derivatives of N-heterocyclylmethylbenzamides, preparation method thereof and application of same in therapeutics” (Sanofi-Aventis, priority 2003, dated 2009).
Structures can show the parent of a compound that is named as a salt.

Biological target: T1, native human transporter glyt1 (Homo sapiens, UniProt P48067)
T1 construct: expressing the native human transporter glyt1; endogenous in cells; host or cells: SK-N-MC cells (human neuroepithelial cells)
T1 sequence (P48067 1-706): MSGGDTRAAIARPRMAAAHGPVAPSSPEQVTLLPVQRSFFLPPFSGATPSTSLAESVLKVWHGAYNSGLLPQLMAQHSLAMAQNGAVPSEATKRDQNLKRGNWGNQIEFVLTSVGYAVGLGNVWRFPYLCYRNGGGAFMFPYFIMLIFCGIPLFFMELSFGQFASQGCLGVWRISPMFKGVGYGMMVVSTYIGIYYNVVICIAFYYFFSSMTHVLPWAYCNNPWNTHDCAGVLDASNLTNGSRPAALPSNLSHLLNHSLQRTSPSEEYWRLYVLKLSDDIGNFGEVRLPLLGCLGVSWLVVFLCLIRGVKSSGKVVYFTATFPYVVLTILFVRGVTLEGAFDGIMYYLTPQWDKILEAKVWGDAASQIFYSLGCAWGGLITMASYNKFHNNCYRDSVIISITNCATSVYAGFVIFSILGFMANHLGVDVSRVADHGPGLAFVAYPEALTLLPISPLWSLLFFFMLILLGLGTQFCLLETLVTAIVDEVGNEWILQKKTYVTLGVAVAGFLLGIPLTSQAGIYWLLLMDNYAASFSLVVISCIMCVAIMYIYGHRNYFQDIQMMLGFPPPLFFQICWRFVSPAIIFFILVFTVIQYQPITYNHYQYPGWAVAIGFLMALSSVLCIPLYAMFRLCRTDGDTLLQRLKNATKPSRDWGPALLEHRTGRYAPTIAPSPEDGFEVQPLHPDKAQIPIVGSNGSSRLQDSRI
Assay: Transport of glycine ([14C]glycine capture) in SK-N-MC cells expressing the native human transporter glyt1
Type: cell-based
Conditions: 10 μM [14C]glycine, 10 min at 37° C., pH 7.4, read-out: IC50, concentration which reduces by 50% the specific capture of glycine
Protocol: Study of the Transport of Glycine in SK-N-MC Cells Expressing the Native Human Transporter Glyt1.
The capture of [^14C]glycine is studied in SK-N-MC cells (human neuroepithelial cells) expressing the native human transporter glyt1 by measuring the radioactivity incorporated in the presence or in the absence of the test compound. The cells are cultured in a monolayer for 48 h in plates pretreated with fibronectin at 0.02%. On the day of the experiment, the culture medium is removed and the cells are washed with a Krebs-HEPES ([4-(2-hydroxyethyl)piperazine]1-ethanesulfonic acid) buffer at pH 7.4. After a preincubation of 10 min at 37° C. in the presence either of buffer (control batch), or of test compound at various concentrations, or of 10 mM glycine (determination of the nonspecific capture), 10 μM [^14C]glycine (specific activity 112 mCi/mmol) are then added. The incubation is continued for 10 min at 37° C., and the reaction is stopped by 2 washes with a Krebs-HEPES buffer at pH 7.4. The radioactivity incorporated by the cells is then estimated after adding 100 μl of liquid scintillant and stirring for 1 h. The counting is performed on a Microbeta Tri-lux™ counter. The efficacy of the compound is determined by the IC50, the concentration of the compound which reduces by 50% the specific capture of glycine, defined by the difference in radioactivity incorporated by the control batch and the batch which received the glycine at 10 mM.

SMILES | IC50
O=C(N[C@@H](c1ccccc1)[C@@H]1CC2CCN1CC2)c1c(Cl)ccc(C(F)(F)F)c1Cl [Compound No. 17] | 1 nM
C=CC1CN2CCC1CC2C(NC(=O)c1cccc(C(F)(F)F)c1Cl)c1ccnc2ccccc12 [Compound No. 14, 2-Chloro-N-(8α,9S)cinchonan-9-yl)-3-trifluoromethyl-benzamide hydrochloride 2:1] | 70 nM
O=C(NC(c1ccccc1)C1CC2CCN1CC2)c1c(Cl)ccc(C(F)(F)F)c1Cl (stereo not drawn) [Compound No. 4, threo-2,6-Dichloro-N-[(1-azabicyclo[2.2.2]oct-2-yl)phenylmethyl]-3-trifluoromethylbenzamide hydrochloride 1:1] | 4 nM
O=C(NC(c1ccc(F)cc1)C1CC2CCN1CC2)c1c(Cl)ccc(C(F)(F)F)c1Cl (stereo not drawn) [Compound No. 26, threo-N-[1-Azabicyclo[2.2.2]oct-2-yl(4-fluorophenyl)-methyl]-2,6-dichloro-3-(trifluoromethyl)benzamide hydrochloride 1:1] | 70 nM
O=C(NC(c1ccccc1)C1CC2CCN1CC2)c1cccc(C(F)(F)F)c1Cl (stereo not drawn) [Compound No. 3, threo-2-Chloro-N-[(1-azabicyclo[2.2.2]oct-2-yl)phenyl-methyl]-3-trifluoromethylbenzamide hydrochloride 1:1] | 17 nM

Biological target: T2, transporter glyt2 (Mus musculus, UniProt Q761V0)
T2 construct: from tissue; host or cells: mouse spinal cord homogenate (Iffa Crédo OF1 male mice)
T2 sequence (Q761V0 1-799): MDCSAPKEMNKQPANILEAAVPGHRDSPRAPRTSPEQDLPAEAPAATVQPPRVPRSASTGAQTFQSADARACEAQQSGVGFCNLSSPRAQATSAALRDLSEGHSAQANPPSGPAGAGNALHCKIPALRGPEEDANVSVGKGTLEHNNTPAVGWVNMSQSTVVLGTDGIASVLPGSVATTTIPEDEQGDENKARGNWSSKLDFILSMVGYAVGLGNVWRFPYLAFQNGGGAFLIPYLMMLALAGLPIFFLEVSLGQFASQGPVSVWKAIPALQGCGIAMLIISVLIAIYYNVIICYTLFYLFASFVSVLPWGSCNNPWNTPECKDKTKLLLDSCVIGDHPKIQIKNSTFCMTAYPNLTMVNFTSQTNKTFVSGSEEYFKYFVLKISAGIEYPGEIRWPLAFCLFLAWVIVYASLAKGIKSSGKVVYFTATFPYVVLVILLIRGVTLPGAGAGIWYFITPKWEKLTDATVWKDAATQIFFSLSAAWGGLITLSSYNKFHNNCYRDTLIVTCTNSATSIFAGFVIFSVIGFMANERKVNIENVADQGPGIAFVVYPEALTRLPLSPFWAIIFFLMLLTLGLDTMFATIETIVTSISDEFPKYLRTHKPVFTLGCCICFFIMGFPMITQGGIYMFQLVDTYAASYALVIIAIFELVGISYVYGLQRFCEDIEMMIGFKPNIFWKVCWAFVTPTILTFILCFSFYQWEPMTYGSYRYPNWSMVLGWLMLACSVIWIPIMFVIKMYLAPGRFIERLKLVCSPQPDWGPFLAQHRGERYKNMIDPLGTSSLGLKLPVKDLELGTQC
Assay: Transport of glycine ([14C]glycine capture) in mouse spinal cord homogenate
Type: biochemical
Conditions: 10 μM [14C]glycine, 10 min at 25° C., pH 7.4, read-out: IC50, concentration reducing by 50% the specific capture of glycine
Excerpt: Study of the Transport of Glycine in Mouse Spinal Cord Homogenate
The capture of [^14C]glycine by the transporter glyt2 is studied in mouse spinal cord homogenate by measuring the radioactivity incorporated in the presence or in the absence of the compound to be studied.
After the animals have been humanely killed (Iffa Crédo OF1 male mice weighing 20 to 25 g on the day of the experiment), the spinal cord of each animal is rapidly removed, weighed and stored on ice. The samples are homogenized in a Krebs-HEPES ([4-(2-hydroxyethyl)piperazine]1-ethanesulfonic acid) buffer, pH 7.4, at a rate of 25 ml/g of tissue.
50 μl of homogenate are preincubated for 10 min at 25° C. in the presence of Krebs-HEPES buffer, pH 7.4 and of compound to be studied at various concentrations, or of 10 mM glycine in order to determine the nonspecific capture. The [^14C]glycine (specific activity=112 mCi/mmol) is then added for 10 min at 25° C. at the final concentration of 10 μM. The reaction is stopped by filtration under vacuum and the radioactivity is estimated by solid scintillation by counting on a Microbeta Tri-lux™ counter.
The efficacy of the compound is determined by the concentration IC50 capable of reducing by 50% the specific capture of glycine, defined by the difference in radioactivity incorporated by the control batch and the batch which received the 10 mM glycine.

SMILES | IC50
O=C(N[C@@H](c1ccccc1)[C@@H]1CC2CCN1CC2)c1c(Cl)ccc(C(F)(F)F)c1Cl [Compound No. 17] | 690 nM
